In patent US20080051464A1, “Protein phosphatase inhibitors” (The Cleveland Clinic Foundation, priority 2006, published 2008):

Legend:
[1] = tested on: SHP-1 substrate pLck-pY394 in Jurkat T cells; test: induction of pLck-pY394 in Jurkat cells (SDS-PAGE/Western blotting); type: cell-based, human
Method: (§1) Jurkat cells in culture medium (3×10^6 cells/ml, 1 ml/tube) were treated with agents for designated times at room temperature. After brief centrifuging in a microfuge (4,000 rpm, 2 min), the cell pellet was lysed on ice for 30 min in 100 μl of cold lysis buffer (1% NP40, 50 mM Tris, pH 7.4, 150 mM NaCl, 20 mM NaF, 0.2 mM Na3VO4 and 1 mM Na3MO4) containing a cocktail of proteinase inhibitors (Sigma, 1 tablet/10 ml). The lysates were cleared by centrifuging (14,000 rpm, 10 min) in a microfuge at 4° C. to remove insoluble parts, mixed with equal volume of 2×SDS-PAGE sample buffer, boiled for 5 min and analyzed (˜3×10^5 cells/well) by SDS-PAGE/Western blotting. Relative intensities of phosphotyrosine bands were quantified through densitometry analysis.
as §1, with “blotting as described previously (23, 24).” for “blotting.”
as §1, with “blotting as described previously (17, 18).” for “blotting.”

Jurkat cells = test: Jurkat cell growth in culture (MTT assay); type: cell-based, human
Method: FIG. 3 illustrates differential toxicity of L5 and L6. Jurkat cells were cultured in the absence or presence of lead compound #5 (L5) (A) or #6 (L6) (B) for 6 days prior to quantification of cell growth by MTT assays. Data represent mean ±SD of triplicate samples. Balb/c mice were treated with L5 (˜10 mg/kg body weight, s.c., daily, M-F/wk) for two weeks to assess its toxicity in vivo (C).
L5, L6 and L6 analogs (Chembridge), mouse IFNγ ELISPOT Kit (R & D System) and antibody against pLck-pY394 or pERK1/2 (Cell Signaling) were purchased from commercial sources. Human Jurkat T cell line and murine B16 melanoma cell line (ATCC) and other cancer cell lines were maintained in […] culture medium supplemented with 10% fetal calf serum (FCS). The effects of chemical compounds on cancer cell growth in culture were quantified by MTT assays following our established procedures.

[2] = tested on: IFNγ+ cells in mouse splenocytes; test: induction of IFNγ+ cells in mouse splenocytes in vitro (ELISPOT); type: cell-based; details: for increase of IFNγ+ cells in splenocytes: 16 hrs (FIG. 5A)
Method: The splenocytes were cultured in RPMI 1640 medium supplemented with 10% FCS in the absence or presence of designated agents for 16 hrs in flat-bottom 96-well plates coated with a monoclonal antibody specific for mouse IFNγ (mouse IFNγ ELISPOT Kit, R & D System). The plates were then processed for in situ detection of IFNγ+ cells by ELISA following the manufacturer's procedure. Scanning and counting of IFNγ+ cells in the plates were accomplished using an automatic ELISPOT reader with Immunospot2 software (Cellular Technology Ltd). Mouse splenocytes were also untreated or treated with agents for 16 hrs in culture dishes and then stained with appropriate isotype control antibodies or FICT-labeled anti-CD3 monoclonal antibody (BD) plus PE-labeled monoclonal antibody (BD) for intracellular IFNγ following established procedures. The stained samples were washed 3 times, re-suspended in 200 μl of 1% para-formaldehyde solution and analyzed (20,000 cells/sample) using a BD FACS Caliburs cytometer and WinList software.
The splenocytes were cultured in RPMI 1640 medium supplemented with 10% FCS in the absence or presence of designated agents for 16 hrs in flat-bottom 96-well plates coated with a monoclonal antibody specific for mouse IFNγ (mouse IFNγ ELISPOT Kit, R & D System). The plates were then processed for in situ detection of IFNγ+ cells by ELISA following the manufacturer's procedure. Scanning and counting of IFNγ+ cells in the plates were accomplished using an automatic ELISPOT reader with Immunospot2 software (Cellular Technology Ltd).

With `O=C1C=CC(=O)C(c2cc(Cl)ccc2Cl)=C1` [L5] the “level capable of inhibiting SHP-1 in Jurkat T cells” value [1] was 10 ng/mL, the “level capable of inhibiting SHP-1 in Jurkat T cells (molar)” value [1] was roughly 40 nM and the pLck-pY394 induction ([1]; 0.01 μg/ml, 10 min) was 2-3 fold. The pLck-pY394 induction ([1]; 0.1, 1 or 3 μg/ml, 10 min) was greater than 4 folds, the “effective dose for pLck-pY394 induction / intracellular SHP-1 inhibition” value ([1]; Jurkat cells, 10 min) was no less than 0.01 μg/ml and the “pLck-pY394 induction in comparison to untreated control” value ([1]; Jurkat cells, 10 min, densitometry (FIG. 2)) was roughly 10 fold. The “potency relative to SSG” value ([1]; by weight) was “approximately 1,000 fold”, the “potency relative to SSG” value ([1]; in equal molar ratios) was roughly 350 fold and the “toxicity against Jurkat cells in culture (summary)” value (Jurkat cells) was “marked toxicity”. For the same molecule, the “growth of Jurkat cells in culture” value (Jurkat cells; ~30 ng-1 μg/ml, 6 days) was “not markedly affected”, the “induction of IFNγ+ cells” value ([2]; 0.001 μg/ml (FIG. 11)) was “inactive” and the “increase of IFNγ+ cells in splenocytes” value ([2]; 1 μg/ml) was roughly 14 fold. The “increase of IFNγ+ cells in splenocytes” value ([2]; 3 μg/ml) was roughly 26 fold, the “increase of IFNγ+ cells in splenocytes” value ([2]; 10 μg/ml) was roughly 17 fold and the “increase of IFNγ+ cells in splenocytes” value ([2]; 30 μg/ml) was roughly 10 fold. The “induction of IFNγ+ cells” value ([2]; 0.01 to 1 μg/ml (FIG. 11A)) was “effective”, the “minimal effective dose for IFNγ+ cell induction” value ([2]; FIG. 11) was 10 ng/mL and the “induction of IFNγ+ cells” value ([2]; higher doses (FIG. 16B)) was “induced significant IFNγ+ cells”. The “induction of IFNγ+ cells” value ([2]; low doses (0.01 to 1 μg/ml), splenocytes of the same mouse (FIG. 16B)) was 3-4 fold and the “effectiveness compared with SSG in inducing IFNγ+ cells” value ([2]; maximal induction at a comparable dose, mouse splenocytes) was roughly 58 fold.
